Consider one compound from patent US20250027863A1, “METHOD OF CHARACTERIZATION OF RELEASE OF POORLY SOLUBLE MATERIALS AND UPTAKE IN COMPLEX LIQUIDS” (Zennova LLC, priority 2021, published 2025).

This series in a line: MCRR in vitro release test of ibuprofen solution (flow medium) to external medium. It is filed as physicochemical.

With `CC(C)Cc1ccc(C(C)C(=O)O)cc1` (centres unmarked) [ibuprofen], the “slope of ln (1-fraction released) vs. the exposure time” value (exposure time in seconds, 15-300 seconds) was −0.0102. Also, the percent released (ibuprofen solution in 25 mM phosphate buffer as flow medium, exposure times up to 300 seconds (test time 291.3 minutes), 20° C, triplicate) is roughly 100%.
